Results on eleven molecules are retold here after PMC3310203 (Journal of Medicinal Chemistry, 2012).

The conditions of data set [1]: ATZ for comparison, cited from earlier work.
Data set [2] concerns the target HIV-1 protease (Human immunodeficiency virus type 1 group M subtype B, UniProt P04585). Description: HIV protease inhibition, fluorometric assay. Format: biochemical. The following applies: for Ki: fluorometric assay, pH 5.0, 30 °C, 5 µM substrate.
The test system of data set [3] is HIV. Put plainly: In vitro anti-HIV activity in MT4 cells. Type of data set: cell-based. To be noted: for times higher potency than 13a in the cell-based antiviral activity assay: fold versus 13a.
The nature of data set [4]: Metabolic stability. Format: in vitro ADME, human.
Data set [5] relates to Caco-2 cell. Put plainly: Caco-2 cell penetration assay. Type of data set: in vitro ADME.
The mark [6] stands for this setting: p-bromide inhibitors 13a and 19a compared.

Structures are written as SMILES. Entries after “also recorded” stand apart in the source; their conditions may differ. Like-named read-outs stand apart in the source and are kept apart here.

With `COC(=O)N[C@H](C(=O)N[C@@H](Cc1ccccc1)[C@@H](O)CN(Cc1ccc(-c2ccccn2)cc1)NC(=O)[C@@H](NC(=O)OC)C(C)(C)C)C(C)(C)C` [ATZ, Atazanavir], the Clint in data set [1] (ref 23) is 90 μL min^–1 mg^–1; in data set [1] (ref 64) it was 140 μL min^–1 mg^–1.
On to `COC(=O)N[C@H](C(=O)NN(CC[C@@]1(Cc2ccccc2)C(=O)N([C@H]2c3ccccc3C[C@H]2O[Si](C)(C)C(C)(C)C)C[C@H]1O[Si](C)(C)C(C)(C)C)Cc1ccc(Br)cc1)C(C)(C)C` [Compound 12a], for which the “activity in the enzyme assay (in words)” value in data set [2] is reported as “did not show any activity; also recorded: did not show any inhibitory potency”. Also, the “activity in the cell-based antiviral assay (in words)” value in data set [3] is reported as “did not show any activity”.
The matching figures for `COC(=O)N[C@H](C(=O)NN(CC[C@@]1(Cc2ccccc2)C(=O)N([C@H]2c3ccccc3C[C@H]2O[Si](C)(C)C(C)(C)C)C[C@@H]1O[Si](C)(C)C(C)(C)C)Cc1ccc(Br)cc1)C(C)(C)C` [Compound 12d]: “did not show any activity; also recorded: did not show any inhibitory potency” and “did not show any activity”.
`COC(=O)N[C@H](C(=O)NN(CC[C@@]1(Cc2ccccc2)C(=O)N([C@H]2c3ccccc3C[C@H]2O)C[C@H]1O)Cc1ccc(Br)cc1)C(C)(C)C` [Compound 13a]: the Ki (as a rule, a dissociation constant, usually derived from enzyme kinetics or from competition with a known ligand) in data set [2] was less than 0.01 µM. The “metabolic clearance (in words)” value in data set [4] is given as “High metabolic clearance”. Moreover, the EC50 (usually the concentration at which the effect is half-maximal) in data set [3] (Human immunodeficiency virus 1, MT4, antiviral activity, MT4 cells) was less than 1 µM.
In the case of `COC(=O)N[C@H](C(=O)NN(CC[C@]1(Cc2ccccc2)C(=O)N([C@H]2c3ccccc3C[C@H]2O)C[C@H]1O)Cc1ccc(Br)cc1)C(C)(C)C` [Compound 13b], the “activity in the enzyme assay (in words)” value in data set [2] was “did not show any activity; also recorded: almost no inhibiting effect”. Further, the “activity in the cell-based antiviral assay (in words)” value in data set [3] is recorded as “did not show any activity; also recorded: almost no inhibiting effect”.
As to `COC(=O)N[C@H](C(=O)NN(CC[C@]1(Cc2ccccc2)C(=O)N([C@H]2c3ccccc3C[C@H]2O)C[C@@H]1O)Cc1ccc(Br)cc1)C(C)(C)C` [Compound 13c], the “activity in the enzyme assay (in words)” value in data set [2] is on record as “did not show any activity; also recorded: almost no inhibiting effect”. The “activity in the cell-based antiviral assay (in words)” value in data set [3] is listed as “did not show any activity; also recorded: almost no inhibiting effect”.
In data set [2], `COC(=O)N[C@H](C(=O)NN(CC[C@@]1(Cc2ccccc2)C(=O)N([C@H]2c3ccccc3C[C@H]2O)C[C@@H]1O)Cc1ccc(Br)cc1)C(C)(C)C` [Compound 13d] registered a Ki of less than 0.01 µM. The “metabolic clearance (in words)” value in data set [4] is on record as “High metabolic clearance”. In addition, the “permeability in the Caco-2 study (in words)” value (from here on “permeability”) in data set [5] is recorded as “good results”.
`COC(=O)N[C@H](C(=O)NN(CC[C@@]1(Cc2ccccc2)C(=O)N([C@H]2c3ccccc3C[C@H]2O)C[C@H]1O)Cc1ccc(-c2cccnc2)cc1)C(C)(C)C` [Compound 13g]: the “permeability” value in data set [5] is listed as “moderate permeability”. In addition, the “times higher potency than 13a in the cell-based antiviral activity assay” value in data set [3] is reported as 10.
On to `COC(=O)N[C@H](C(=O)NN(CC[C@@]1(Cc2ccccc2)C(=O)N([C@H]2c3ccccc3C[C@H]2O)C[C@@H]1O)Cc1ccc(-c2cccnc2)cc1)C(C)(C)C` [Compound 13h], for which, in data set [5], the “permeability” value is given as “moderate permeability”.
For the molecule `COC(=O)N[C@H](C(=O)NN(CC[C@@]1(Cc2ccccc2)C(=O)N([C@H]2c3ccccc3C[C@H]2O)C[C@H]1O)Cc1ccc(-c2ccncc2)cc1)C(C)(C)C` [Compound 13i], in data set [3], the “times higher potency than 13a in the cell-based antiviral activity assay” value turned out to be 10.
Regarding `COC(=O)N[C@H](C(=O)NN(CCC[C@@]1(Cc2ccccc2)C(=O)N([C@H]2c3ccccc3C[C@H]2O)C[C@H]1O)Cc1ccc(Br)cc1)C(C)(C)C` [Compound 19a], in data set [2] (setting [6]), the “fold loss of potency versus 13a (Ki)” value was 5. In data set [5], the “permeability” value is recorded as “high permeability”. Further, the “fold loss of potency versus 13a (EC50)” value in data set [3] (setting [6]) stood at 5.
